Target: T1, PARP3 (Homo sapiens, UniProt Q9Y6F1)
T1 construct: made in house; host or cells: insect cells (Sf9 or High-Five), baculovirus, pFASTBAC-1
T1 sequence (Q9Y6F1 1-533): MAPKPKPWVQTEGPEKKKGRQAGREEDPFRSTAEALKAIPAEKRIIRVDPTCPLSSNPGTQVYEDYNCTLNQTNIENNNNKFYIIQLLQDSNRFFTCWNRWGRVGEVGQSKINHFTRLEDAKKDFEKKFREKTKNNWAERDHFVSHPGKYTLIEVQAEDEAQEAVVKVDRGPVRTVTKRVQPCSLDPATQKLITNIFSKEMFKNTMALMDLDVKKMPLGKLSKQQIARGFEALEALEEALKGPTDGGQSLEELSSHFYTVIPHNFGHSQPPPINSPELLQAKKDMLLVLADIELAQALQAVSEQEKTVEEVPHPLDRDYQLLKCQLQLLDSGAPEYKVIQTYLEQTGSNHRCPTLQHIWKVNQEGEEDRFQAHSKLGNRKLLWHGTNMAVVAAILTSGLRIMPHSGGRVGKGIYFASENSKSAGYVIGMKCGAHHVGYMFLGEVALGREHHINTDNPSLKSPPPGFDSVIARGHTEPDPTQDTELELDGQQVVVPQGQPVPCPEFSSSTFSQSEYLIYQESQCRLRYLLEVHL
Experiment: PARP inhibition assay, selectivity PARP2 versus PARP3
Assay type: biochemical
Conditions: PARP2 compared with PARP3 as printed
Method: Assay Systems for Determining the Activity of PARP2 and PARP3 and the Inhibitory Action of Effectors on PARP1, PARP2 and PARP3
Various concentrations were used to construct a dose-effect plot to determine the Ki value of an inhibitor. Values are obtained in triplicate for a particular inhibitor concentration. Arithmetic means are determined using Microsoft© Excel. The IC50 is determined using the Microcal© Origin Software (Vers. 5.0) (“Sigmoidal Fit”). Conversion of the IC50 value is calculated in this way into Ki values took place by using “calibration inhibitors”.
The “calibration inhibitors” were also measured in each analysis. The Ki values of the “calibration inhibitors” were determined in the same assay system by analysis of the Dixon diagram in the manner familiar to the skilled worker.
Measurement was then possible after 30 minutes (up to 4 hours). The measurement took place in a “discovery HTRF microplate analyzer” (Canberra Packard Instruments). The Ki values were calculated as described for the ELISA.

selectivity for PARP2 over PARP3: eight times
SMILES: O=c1[nH]nc(CNc2ccc(O)cc2)c2ccccc12 [4-(N-(4-hydroxyphe-nyl)aminomethyl)-(2H)-dihydrophthalazine-1-one]

— patent publication US9051553B2, “Poly(ADP-ribose) polymerase genes” (AbbVie Deutschland GmbH & Co. KG, priority 1998, dated 2015)
